Experimental data reported in ChEMBL document CHEMBL4038308, “Lipophosphonoxins II: Design, Synthesis, and Properties of Novel Broad Spectrum Antibacterial Agents” (J Med Chem, 2017).
Values after ≈ are worked out from the molar mass of the structure shown. Active and inactive are the calls of the source. The calls are words filed in the database; no cut-off is given here.

How the values were obtained:
[1] = Critical micellar concentration of the compound by capillary electrophoresis method
Enterococcus faecalis = assay: Antibacterial activity against Enterococcus faecalis CCM 4224 after 24 hrs by microdilution method; type: functional; settings: CCM 4224, 24 h
Escherichia coli [2] = assay: Antibacterial activity against Escherichia coli 16702 after 24 hrs by microdilution method; type: functional; settings: Escherichia coli, 16702, 24 h
Staphylococcus aureus [3] = assay: Antibacterial activity against methicillin-resistant Staphylococcus aureus 4591 clinical isolates after 24 hrs by microdilution method; type: functional; settings: Staphylococcus aureus, 4591, 24 h
[4] = system: Staphylococcus epidermidis; assay: Antibacterial activity against Staphylococcus epidermidis 8700/B after 24 hrs by microdilution method; type: functional
[5] = system: Stenotrophomonas maltophilia; assay: Antibacterial activity against Stenotrophomonas maltophilia S2-23 after 24 hrs by microdilution method; type: functional; settings: S2-23, 24 h
Escherichia coli [6] = assay: Bactericidal activity against Escherichia coli CCM 3954 assessed as reduction in bacterial count at 6.25 to 12.5 mg/L after 24 hrs by time kill assay; type: functional
Staphylococcus aureus [7] = assay: Bactericidal activity against Staphylococcus aureus CCM 4223 assessed as reduction in bacterial count at 12.5 mg/L after 6 hrs by time kill assay; type: functional
Lipid bilayer = assay: Binding affinity to DOPG large unilamellar vesicle assessed as carboxyfluorescein leakage at 10 mg/L after 20 secs by fluorescence-based assay relative to control
Escherichia coli [8] = assay: Induction of cytoplasmic membrane permeabilization in Escherichia coli CCM 3954 assessed as increase in propidium iodide fluorescence intensity at 5 mg/L by spectrofluorometric analysis; type: functional
TERT-RPE1 [9] = assay: Induction of apoptosis in human RPE1 cells assessed as caspase 3/7 activation up to 80 mg/L after 4 hrs by caspase-Glo 3/7 luminescent assay; type: cell-based; settings: tert-rpe1, 4 h
TERT-RPE1 [10] = assay: Cytotoxicity against human RPE1 cells assessed as disruption of cell membrane integrity after 4 hrs by CytoTox-ONE-based assay; settings: tert-rpe1, 4 h
Oryctolagus cuniculus = assay: Toxicity in topically applied rabbit assessed as skin irritation measured up to 14 days post dose; settings: in vivo, topical_or_ocular, 336 h
[11] = Chemical stability of compound at 50 to 500 mg/L at pH 0.18 after 24 hrs at 37 degC by LC-MS analysis; type: physicochemical; settings: buffer, pH 0.18, 24 h

**Q.** For CCCCCCCCCCCCCCOP(=O)(CCN(CCCN)CCCN)OC[C@H]1O[C@@H](n2ccc(=O)[nH]c2=O)[C@H](O)[C@@H]1O (some centres undefined), which CMC [1] is on record?
**A.** 4.55 mM

**Q.** And the MIC (Enterococcus faecalis)?
**A.** 25 µg/mL (≈ 37.8 µM)

**Q.** And the MIC (Escherichia coli [2])?
**A.** 3.13 µg/mL (≈ 4.73 µM)

**Q.** And the MIC (Staphylococcus aureus [3])?
**A.** 6.25 µg/mL (≈ 9.44 µM)

**Q.** What about the MIC [4] of the same molecule?
**A.** 1.56 µg/mL (≈ 2.36 µM)

**Q.** What about the MIC [5] of the same molecule?
**A.** 12.5 µg/mL (≈ 18.9 µM)

**Q.** What about the Activity (Escherichia coli [6]) of the same molecule?
**A.** Active

**Q.** And the Activity (Staphylococcus aureus [7])?
**A.** Active

**Q.** What about the Activity (Lipid bilayer) of the same molecule?
**A.** Active

**Q.** And the Activity (Escherichia coli [8])?
**A.** Active

**Q.** What about the Activity (TERT-RPE1 [9]) of the same molecule?
**A.** Non-Toxic

**Q.** What about the Activity (TERT-RPE1 [10]) of the same molecule?
**A.** Non-Toxic

**Q.** What about the Activity (Oryctolagus cuniculus) of the same molecule?
**A.** Non-Toxic

**Q.** And the Stability [11]?
**A.** Stable
